Reference: US12063933B1, “Antimicrobial compositions including copper(I) salts and additives” (CORNING INCORPORATED, priority 2023, dated 2024)

Tested on: Staphylococcus aureus (ATCC 6538)
Assay: EPA Test antimicrobial efficacy (log kill) of films/coupons
Assay type: cell-based

SMILES: CCOP(OCC)OCC.[Cu][I] [CuI(TEP), iodo(triethyl phosphite)copper(I)]
- antimicrobial efficacy: essentially full kill
